From patent US7544806B2, “Piperidine-substituted indoles-or heteroderivatives thereof” (Boehringer Ingelheim International GmbH, priority 2003, dated 2009)

- melting point: 179 to 181 °C
SMILES: CCOC(=O)c1cccc(SCCCN2CCC(n3c(CC)cc4cc(F)ccc43)CC2)c1 [Example 36, 3-{3-[4-(2-Ethyl-5-fluoro-indol-1-yl)-piperidin-1-yl]propylsulfanyl}-benzoic acid ethyl ester]
